Measured values published in the NIST ThermoML archive (doi:10.1021/je500380x).
± gives the expanded uncertainty stated by the source.

Test: mn = molality of the nth substance listed, in mol/kg
Conditions: 100 kPa, Liquid; for electrical conductivity: Alternating current cell with electrodes; for viscosity: Falling or rolling sphere viscometry; for mass density: Vibrating tube method

CCC(=O)OCCN1CCNCC1 [2-(piperazin-1-yl)ethyl propionate] + CCO
Conditions | electrical conductivity [S/m] | mass density [kg/m3] | viscosity [mPa·s]
293.15 K, m1 = 0.05 | 0.018 ± 0.00019 | 792.31 ± 0.15 | 1.231 ± 0.015
293.15 K, m1 = 0.1 | 0.0284 ± 0.0003 | 795.01 ± 0.15 | 1.291 ± 0.016
293.15 K, m1 = 0.1985 | 0.0443 ± 0.0004 | 800.36 ± 0.15 | 1.369 ± 0.017
293.15 K, m1 = 0.3005 | 0.0571 ± 0.0006 | 806.02 ± 0.15 | 1.473 ± 0.018
293.15 K, m1 = 0.4001 | 0.0671 ± 0.0007 | 811.4 ± 0.15 | 1.577 ± 0.02
293.15 K, m1 = 0.5007 | 0.0769 ± 0.0008 | 817.08 ± 0.15 | 1.711 ± 0.021
293.15 K, m1 = 0.5998 | 0.0851 ± 0.0009 | 822.5 ± 0.14 | 1.845 ± 0.023
293.15 K, m1 = 0.7002 | 0.092 ± 0.0009 | 828.2 ± 0.14 | 2 ± 0.025
293.15 K, m1 = 0.8 | 0.0988 ± 0.001 | 833.89 ± 0.14 | 2.198 ± 0.027
293.15 K, m1 = 0.8957 | 0.1048 ± 0.001 | 839.61 ± 0.14 | 2.363 ± 0.029
293.15 K, m1 = 1 | 0.1105 ± 0.0011 | 845.48 ± 0.14 | 2.582 ± 0.032
293.15 K, m1 = 1.198 | 0.119 ± 0.0012 | 857.06 ± 0.14 | 3.081 ± 0.038
293.15 K, m1 = 1.401 | 0.126 ± 0.0013 | 869.49 ± 0.13 | 3.774 ± 0.047
293.15 K, m1 = 1.602 | 0.13 ± 0.0013 | 881.43 ± 0.13 | 4.697 ± 0.058
293.15 K, m1 = 1.8 | 0.1314 ± 0.0013 | 893.69 ± 0.13 | 5.93 ± 0.073
293.15 K, m1 = 2.001 | 0.1308 ± 0.0013 | 906.93 ± 0.13 | 7.934 ± 0.098
293.15 K, m1 = 2.198 | 0.127 ± 0.0013 | 918.83 ± 0.12 | 9.733 ± 0.12
293.15 K, m1 = 2.397 | 0.121 ± 0.0012 | 931.94 ± 0.12 | 12.86 ± 0.16
293.15 K, m1 = 2.597 | 0.1137 ± 0.0011 | 945.08 ± 0.12 | 18.8 ± 0.23
293.15 K, m1 = 2.796 | 0.106 ± 0.0011 | 958.17 ± 0.12 | 25.23 ± 0.31
293.15 K, m1 = 3.006 | 0.0951 ± 0.001 | 972.39 ± 0.12 | 37.45 ± 0.46
298.15 K, m1 = 0.05 | 0.0186 ± 0.00019 | 788.01 ± 0.15 | 1.12 ± 0.014
298.15 K, m1 = 0.1 | 0.0296 ± 0.0003 | 790.73 ± 0.15 | 1.173 ± 0.015
298.15 K, m1 = 0.1985 | 0.0465 ± 0.0005 | 796.08 ± 0.15 | 1.241 ± 0.015
298.15 K, m1 = 0.3005 | 0.06 ± 0.0006 | 801.71 ± 0.15 | 1.333 ± 0.017
298.15 K, m1 = 0.4001 | 0.071 ± 0.0007 | 807.14 ± 0.15 | 1.424 ± 0.018
298.15 K, m1 = 0.5007 | 0.0816 ± 0.0008 | 812.78 ± 0.15 | 1.541 ± 0.019
298.15 K, m1 = 0.5998 | 0.0904 ± 0.0009 | 818.26 ± 0.15 | 1.658 ± 0.021
298.15 K, m1 = 0.7002 | 0.0977 ± 0.001 | 823.96 ± 0.14 | 1.793 ± 0.022
298.15 K, m1 = 0.8 | 0.106 ± 0.0011 | 829.67 ± 0.14 | 1.967 ± 0.024
298.15 K, m1 = 0.8957 | 0.1123 ± 0.0011 | 835.39 ± 0.14 | 2.11 ± 0.026
298.15 K, m1 = 1 | 0.119 ± 0.0012 | 841.3 ± 0.14 | 2.298 ± 0.028
298.15 K, m1 = 1.198 | 0.129 ± 0.0013 | 852.92 ± 0.14 | 2.729 ± 0.034
298.15 K, m1 = 1.401 | 0.137 ± 0.0014 | 865.42 ± 0.14 | 3.319 ± 0.041
298.15 K, m1 = 1.602 | 0.1415 ± 0.0014 | 877.35 ± 0.13 | 4.106 ± 0.051
298.15 K, m1 = 1.8 | 0.1443 ± 0.0014 | 889.66 ± 0.13 | 5.146 ± 0.064
298.15 K, m1 = 2.001 | 0.1447 ± 0.0014 | 902.95 ± 0.13 | 6.811 ± 0.084
298.15 K, m1 = 2.198 | 0.1423 ± 0.0014 | 914.88 ± 0.13 | 8.295 ± 0.1
298.15 K, m1 = 2.397 | 0.138 ± 0.0014 | 928.01 ± 0.12 | 10.83 ± 0.13
298.15 K, m1 = 2.597 | 0.1304 ± 0.0013 | 941.19 ± 0.12 | 15.64 ± 0.19
298.15 K, m1 = 2.796 | 0.1237 ± 0.0012 | 954.36 ± 0.12 | 20.7 ± 0.26
298.15 K, m1 = 3.006 | 0.1136 ± 0.0011 | 968.58 ± 0.12 | 30.28 ± 0.38
303.15 K, m1 = 0.05 | 0.0191 ± 0.0002 | 783.69 ± 0.15 | 1.021 ± 0.013
303.15 K, m1 = 0.1 | 0.0305 ± 0.0003 | 786.41 ± 0.15 | 1.069 ± 0.013
303.15 K, m1 = 0.1985 | 0.0483 ± 0.0005 | 791.76 ± 0.15 | 1.2 ± 0.015
303.15 K, m1 = 0.3005 | 0.0627 ± 0.0006 | 797.4 ± 0.15 | 1.209 ± 0.015
303.15 K, m1 = 0.4001 | 0.0745 ± 0.0007 | 802.85 ± 0.15 | 1.289 ± 0.016
303.15 K, m1 = 0.5007 | 0.0858 ± 0.0009 | 808.5 ± 0.15 | 1.392 ± 0.017
303.15 K, m1 = 0.5998 | 0.0954 ± 0.001 | 813.99 ± 0.15 | 1.495 ± 0.019
303.15 K, m1 = 0.7002 | 0.1036 ± 0.001 | 819.7 ± 0.15 | 1.613 ± 0.02
303.15 K, m1 = 0.8 | 0.1125 ± 0.0011 | 825.43 ± 0.14 | 1.766 ± 0.022
303.15 K, m1 = 0.8957 | 0.119 ± 0.0012 | 831.17 ± 0.14 | 1.89 ± 0.023
303.15 K, m1 = 1 | 0.127 ± 0.0013 | 837.09 ± 0.14 | 2.054 ± 0.025
303.15 K, m1 = 1.198 | 0.139 ± 0.0014 | 848.73 ± 0.14 | 2.427 ± 0.03
303.15 K, m1 = 1.401 | 0.149 ± 0.0015 | 861.28 ± 0.14 | 2.935 ± 0.036
303.15 K, m1 = 1.602 | 0.155 ± 0.0016 | 873.24 ± 0.13 | 3.606 ± 0.045
303.15 K, m1 = 1.8 | 0.16 ± 0.0016 | 885.6 ± 0.13 | 4.489 ± 0.055
303.15 K, m1 = 2.001 | 0.1614 ± 0.0016 | 898.93 ± 0.13 | 5.886 ± 0.073
303.15 K, m1 = 2.198 | 0.159 ± 0.0016 | 910.89 ± 0.13 | 7.117 ± 0.088
303.15 K, m1 = 2.397 | 0.155 ± 0.0016 | 924.07 ± 0.12 | 9.203 ± 0.11
303.15 K, m1 = 2.597 | 0.147 ± 0.0015 | 937.29 ± 0.12 | 13.25 ± 0.16
303.15 K, m1 = 2.796 | 0.14 ± 0.0014 | 950.5 ± 0.12 | 17.19 ± 0.21
303.15 K, m1 = 3.006 | 0.1307 ± 0.0013 | 964.74 ± 0.12 | 24.65 ± 0.3
308.15 K, m1 = 0.05 | 0.0194 ± 0.0002 | – | 0.934 ± 0.012
308.15 K, m1 = 0.1 | 0.0313 ± 0.0003 | – | 0.976 ± 0.012
308.15 K, m1 = 0.1985 | 0.0499 ± 0.0005 | – | 1.028 ± 0.013
308.15 K, m1 = 0.3005 | 0.0652 ± 0.0007 | – | 1.1 ± 0.014
308.15 K, m1 = 0.4001 | 0.0776 ± 0.0008 | – | 1.171 ± 0.015
308.15 K, m1 = 0.5007 | 0.0899 ± 0.0009 | – | 1.261 ± 0.016
308.15 K, m1 = 0.5998 | 0.1004 ± 0.001 | – | 1.352 ± 0.017
308.15 K, m1 = 0.7002 | 0.109 ± 0.0011 | – | 1.456 ± 0.018
308.15 K, m1 = 0.8 | 0.119 ± 0.0012 | – | 1.59 ± 0.02
308.15 K, m1 = 0.8957 | 0.126 ± 0.0013 | – | 1.698 ± 0.021
308.15 K, m1 = 1 | 0.135 ± 0.0014 | – | –
308.15 K, m1 = 1.198 | 0.148 ± 0.0015 | – | –
308.15 K, m1 = 1.401 | 0.1609 ± 0.0016 | – | –
308.15 K, m1 = 1.602 | 0.169 ± 0.0017 | – | –
308.15 K, m1 = 1.8 | 0.1747 ± 0.0017 | – | –
308.15 K, m1 = 2.001 | 0.178 ± 0.0018 | – | –
308.15 K, m1 = 2.198 | 0.177 ± 0.0018 | – | –
308.15 K, m1 = 2.397 | 0.173 ± 0.0017 | – | –
308.15 K, m1 = 2.597 | 0.165 ± 0.0017 | – | –
308.15 K, m1 = 2.796 | 0.158 ± 0.0016 | – | –
308.15 K, m1 = 3.006 | 0.148 ± 0.0015 | – | –
